Source: patent US8563578B2, “Antitumor properties of NO modified protease inhibitors” (Onconox APS, priority 2008, dated 2013)

What was measured:
B16 mouse melanoma = assay: Cell viability, B16 cells; format: cell-based; settings: read-out: reduction of cell viability
Source text: Rat glioma C6 and human glioblastoma U251 cell lines were a kind gift from Dr. Pedro Tranque (Universidad de Castilla-La Mancha, Albacete, Spain), murine melanoma B 16, and human adenocarcinoma HeLa, were a kind gift from Dr. Sinisa Radulovic (Institute for Oncology and Radiology of Serbia, Belgrade, Serbia) while mouse fibrosarcoma L929 was obtained from the European Collection of Animal Cell Cultures (Salisbury, UK). Human breast HCC1419 and prostate PC-3 cells were purchased from LGC Promochem srl (Venezia, Italy). Primary mouse fibroblasts and rat astrocytes were prepared as described (Mijatovic et al. 2004). […]
Reduction of 3-4,5-dimethylthiazol-2-yl)-2,5-diphenyltetrazolium bromide (MTT) to formazan depends on mitochondrial activity of cultured cells, absorption of crystal violet dye correlates with the number of adherent, live cells, while the release of cytosolic lactate dehydrogenase (LDH) indicates the disruption of membrane integrity caracteristic for necrotic cells. […] Mitohondrial-dependent production of formazan and intensity of absorbed crystal violet by adherent cells were assessed by an automated microplate reader at 570 nm, while the pyruvate-mediated conversion of 2,4-dinitrophenylhydrazine into visible hydrazone precipitate in LDH assay was measured at 492 nm. […]
FIG. 2. […] Cell viability was then evaluated by CV test. […]

B16 cells [1] = assay: Cyclin D3 and p53 expression (cELISA, immunocytochemistry, Western blot), B16; format: cell-based, mouse; settings: 18.8 μM, 24 h (Western blot 4 h)
Source text: A slightly modified method for cell-based ELISA (cELISA) by Versteeg (Versteed et al., 2000) was used to measure the expression of galactocerebroside, glial fibrilar acidic protein (GFAP), myelin basic protein (MBP), cyclin D3, p53 and p-AKT. Briefly, at the end of cultivation period cells were fixed in 4% paraformaldehyde, endogenous peroxydase was quenched with 1% H2O2 in PBS containing 0.1% Triton X-100 (PBST), and unspecific binding of antibodies blocked with PBST solution containing 10% FCS. […] The absorbance at 450 nm was measured in an automated microplate reader 15 min after incubation with peroxydase substrate TMB and subsequently to addition of 0.1 M HCl. To facilitate comparison between treatments, the obtained absorbances were corrected for the cell number that was determined by crystal violet staining, as described in the original protocol.
The detection of expression of cyclin D3 and p53 expression was performed by the immunocytochemical procedure as previously described (Mijatovic et al, 2005). The cells were cultivated in glass chamber-slides (3×10^4 cells/well) and cyclin D3 and p53 expression were detected with specific antibodies against cyclin D3 (1:1000, Santa Cruz Biotechnology, Santa Cruz, Calif.) and p53 (1:500, Santa Cruz Biotechnology, Santa Cruz, Calif.). […]

B16 cells [2] = assay: Cell proliferation by CFSE staining, B16; format: cell-based, mouse; settings: 18.8 μM, 48 h, B16 cells which survived the treatment
Description: (§1) Rate of cell proliferation was verified by flow cytometric analysis of cells labelled with CFSE (Kang et al. 2005). CFSE dye is stable in cytoplasm more than 15 generations and the intensity of fluorescence decline after each division. Briefly, detached cells were stained with 1.5 μM CFSE for the 15 min at 37° C., washed 2 times, seeded in 6-well plates at 2×10^5 cells/well and then exposed to drugs. After 24 and 48 h of cultivation cells were trypsinized and washed 2 times. Finally, the cells were resuspended in PBS and analyzed by flow cytometry. Green fluorescence emission was measured with a FACSCalibur (BD, Heidelberg, Germany) and analyzed using CellQuest software.
(§2) FIG. 4. […] Results are calculated as indicated in materials and methods and presented as mean±SD from representative of three independent experiment (*p <0.05). […] After 24 h of cultivation without or with drugs, cells were stained with AO orange (B) or PI (C) and analyzed by flow cytometry. The data are presented as mean±SD from three independent experiments. *p<0.05, refers to untreated cultures. […] Cells were incubated with 18.8 μM of Sag or Saq-NO2 for 24 h. After that, the drugs were either removed or not from the cells and incubated for additional 24 h. Cell viability was determined by CV test after 24 and 48 h of incubation (right panels). […]

CCR% e CXCR4 strains = assay: In-vitro anti-HIV activity; format: cell-based
C6 cells = assay: Cell proliferation by CFSE staining, C6; format: cell-based, rat; settings: 18.8 μM, 48 h, about 90% of control cells divided
Description: as §1, §2

SMILES: CC(C)(C)NC(=O)[C@@H]1C[C@@H]2CCCC[C@@H]2CN1C[C@@H](O[N+](=O)[O-])[C@H](Cc1ccccc1)NC(=O)[C@H](CC(N)=O)NC(=O)c1ccc2ccccc2n1 [Saq-NO2, nitric ester of Saquinavir]
- cytotoxicity at 18.8 µM (B16 mouse melanoma): ~70%
- cyclin D3 expression (B16 cells [1]): not considerably changed
- p53 expression (B16 cells [1]): much higher extent than Saq
- dividing potential (B16 cells [2]): decreased dividing potential
- in-vitro anti-HIV activity compared with Saquinavir (CCR% e CXCR4 strains): at least as high as that of Saquinavir
- cells able to proliferate (divided) (C6 cells): less than 10%
